# Tests used:
# VEEV TC83 = assay: microbe, parasite or virus in culture; format: cell-based; conditions: Venezuelan equine encephalitis virus, read-out: CPE EC50 (VEEV TC83)
# EEEV V105 = assay: microbe, parasite or virus in culture; format: cell-based, eastern equine encephalitis virus; conditions: for EC50: Eastern equine encephalitis virus, Vero 76, 48 h, read-out: EEEV V105 CPE EC50
# VEEV INH9813 [1] = system: VEEV INH9813
# Mouse plasma stability = conditions: CD-1, mouse
# VEEV INH9813 [2] = assay: microbe, parasite or virus in culture; conditions: Venezuelan equine encephalitis virus, Vero 76, read-out: CPE EC50, VEEV and EEEV
smiles,measurement,setting,value
COc1ccc(N2C(=O)c3cc([N+](=O)[O-])ccc3N=C3C2N(C)CCN3C)cc1 (stereo not shown) [7a],EC50,VEEV TC83,41 nM
COc1ccc(N2C(=O)c3cc([N+](=O)[O-])ccc3N=C3C2N(C)CCN3C)cc1F (stereo not shown) [7b],EC50,EEEV V105,27 ± 3 nM
CN1CCN(C)C2C1=Nc1ccc([N+](=O)[O-])cc1C(=O)N2c1ccccc1 (stereo not shown) [7e],EC50,EEEV V105,59 ± 10 nM
COc1ccc(N2C(=O)c3cc(C#N)ccc3N=C3C2N(C)CCN3C)cc1 (stereo not shown) [7l],loss in antiviral activity for VEEV,VEEV INH9813 [1],100 fold
same,loss in antiviral activity for EEEV,EEEV V105,75 fold
COc1ccc(N2C(=O)c3cc(C#N)cc(-c4ccc(C)nc4)c3N=C3C2N(C)CCN3C)cc1F (stereo not shown) [7o],half-life,Mouse plasma stability,> 4.82 h
same,EC50,VEEV INH9813 [2],160 to 240 nM

# Reference: paper PMC9014857 (ACS Medicinal Chemistry Letters, 2022)
